From ChEMBL document CHEMBL5724914, “Linking interpersonal differences in gut microbiota composition and drug biotransformation activity” (2024)

Legend:
[1] = (§1) The drug is tested on Z-013 corresponding to rabbit gut metagenome with ENA study accession number: PRJEB37062 and ENA sample accession number: ERS12561813 for biotransformation under anaerobic condition. The drug concentrations were measured over 9 timepoints collected between 0 and 24 hours of incubation by liquid-chromatography-coupled mass spectrometry (LC–MS); conditions: 2 µM
[2] = as §1, with “Z-010” for “Z-013”, “to” for “to rabbit gut”, “ERS12561810” for “ERS12561813”; conditions: 2 µM
[3] = as §1, with “Z-004” for “Z-013”, “to” for “to rabbit gut”, “ERS12561804” for “ERS12561813”; conditions: 2 µM
[4] = as §1, with “WLS-220” for “Z-013”, “human” for “rabbit”, “ERS12561769” for “ERS12561813”; conditions: 2 µM
[5] = as §1, with “WLS-170” for “Z-013”, “human” for “rabbit”, “ERS12561762” for “ERS12561813”; conditions: 2 µM
[6] = as §1, with “WLS-069” for “Z-013”, “human” for “rabbit”, “ERS12561748” for “ERS12561813”; conditions: 2 µM
[7] = as §1, with “WLS-010” for “Z-013”, “human” for “rabbit”, “ERS12561743” for “ERS12561813”; conditions: 2 µM
[8] = as §1, with “WLS-006” for “Z-013”, “human” for “rabbit”, “ERS12561741” for “ERS12561813”; conditions: 2 µM
[9] = human gut metagenome, 24 h, 2 µM
[10] = human gut metagenome, 24 h, 2 µM; remark: listed apart in the source
[11] = human gut metagenome, 24 h, 2 µM; remark: listed apart in the source
[12] = human gut metagenome, 24 h, 2 µM; remark: listed apart in the source
[13] = human gut metagenome, 24 h, 2 µM; remark: listed apart in the source
[14] = human gut metagenome, 24 h, 2 µM; remark: listed apart in the source
[15] = human gut metagenome, 24 h, 2 µM; remark: listed apart in the source
[16] = human gut metagenome, 24 h, 2 µM; remark: listed apart in the source
[17] = human gut metagenome, 24 h, 2 µM; remark: listed apart in the source
[18] = human gut metagenome, 24 h, 2 µM; remark: listed apart in the source
[19] = human gut metagenome, 24 h, 2 µM; remark: listed apart in the source
[20] = human gut metagenome, 24 h, 2 µM; remark: listed apart in the source

Measured: Bacterial Biotransformation
Also: call rule not given here.

CC(C)OC(=O)C(C)(C)Oc1ccc(C(=O)c2ccc(Cl)cc2)cc1 [FENOFIBRATE]
Compound NOT metabolized: [6] | [7] | [9] | [14] | [15] | [17] | [18]
Compound metabolized: all other assays above

CC(C(=O)O)c1ccc2c(c1)Cc1cccnc1O2 (stereo not given) [PRANOPROFEN]
Compound metabolized: all assays above

O=C(CCCN1CCC(O)(c2ccc(Cl)cc2)CC1)c1ccc(F)cc1 [HALOPERIDOL]
Compound metabolized: [4] | [5] | [6] | [8] | [9] | [15] | [19]
Compound NOT metabolized: all other assays above

COc1ccc2[nH]c([S+]([O-])Cc3ncc(C)c(OC)c3C)nc2n1 (stereo not given) [TENATOPRAZOLE]
Compound NOT metabolized: [5] | [9] | [10] | [11] | [16] | [18] | [19]
Compound metabolized: all other assays above

CCCC(=O)Nc1ccc(OCC(O)CNC(C)C)c(C(C)=O)c1 (stereo not given) [ACEBUTOLOL]
Compound NOT metabolized: [1] | [2] | [3] | [4] | [7] | [8] | [10] | [18]
Compound metabolized: all other assays above

Cc1ccc(/C(=C\CN2CCCC2)c2ccccn2)cc1 [TRIPROLIDINE]
Compound metabolized: [5] | [8] | [12] | [19]
Compound NOT metabolized: all other assays above

CCOc1ccc(NC(C)=O)cc1 [PHENACETIN]
Compound NOT metabolized: all assays above

CCOC(=O)[C@H](CCc1ccccc1)N[C@@H](C)C(=O)N1[C@H](C(=O)O)C[C@@H]2CCC[C@@H]21
Compound NOT metabolized: [1] | [14]
Compound metabolized: all other assays above

O=c1n(CCCN2CCN(c3cccc(Cl)c3)CC2)nc2ccccn12 [TRAZODONE]
Compound NOT metabolized: [1] | [5] | [7] | [9] | [10] | [13] | [14] | [18]
Compound metabolized: all other assays above
